Like-named read-outs stand apart in the source and are kept apart here.
What was measured:
Assay type in all cases: in vivo, human
[1] = tested on: symptomatic subjects with Huntington's disease; assay: Example 3: open-label dose escalation (10-40 grams per day), tolerability, safety and UHDRS
Experimental: (§1) A two-phase open-label study was conducted to better determine an optimal dose of creatine symptomatic subjects with Huntington's disease. A dose-escalation study (10-40 grams per day) was conducted to determine the maximally tolerated dose (MTD) followed by a de-escalation phase to assess whether brain and serum levels of creatine might be maximal at doses lower than the MTD. Ten subjects were enrolled and followed prospectively for two weeks at each done level increasing in 5-gram increments during dose escalation that lasted 13 weeks. Assessments at each visit included UHDRS, EKG, vital signs, clinical safety and research labs. MRI spectroscopy was conducted prior to baseline at peak done (40 grams) and one month after de-escalation to either 30 or 15 grams daily. To determine an optimal dose, pharmacokinetic as well as clinical data were considered. Once the maximal dose was reached, subjects were assigned one of two lower doses previously taking (15 grams a day (n=5) or 30 grams a day (n=5)). Serum creatine was assessed at baseline, at the end of each 2-week dose escalation step and at the end of the de-escalation phase to assess the correspondence between serum and brain levels of creatine at steady state.

[2] = tested on: patients with ALS; assay: Example 4: combined survival analysis of two placebo-controlled trials in amyotrophic lateral sclerosis; settings: 5 gm per day
Experimental: The two trials analyzed included a total of 211 patients, 103 creatine-treated and 108 placebo-treated subjects.
For this analysis, a measure of treatment effect in an estimated pooled hazard ratio was calculated. This measure gives the risk of death for treated subjects divided by the risk of death for controls. Survival analysis by treatment was also performed for each trial separately. A Cox model was used to assess the hazard ratios and survival by treatment in the pooled data, controlling for trial effect and baseline variables. Baseline characteristics of the study populations were also compared. Continuous variables were compared by treatment and trial, using the analysis of variance by putting both treatment and trial as the […] variables. A Cochran-Mantel-Haenszel test statistic was used to compare discrete variables by treatment and trial, controlling for trial and treatment effects, respectively.

[3] = tested on: serum 8OH2′dG; assay: Example 3: serum 8OH2'dG suppression in dose escalation
Experimental: as §1

[4] = tested on: symptomatic subjects with Huntington's disease
Experimental: as §1
Subjects at the end of this study were given the option to continue a long-term study to evaluate the long-term safety and tolerability of high dosage of creatine. Subjects have been followed for nine months on creatine. […] Adverse events have been infrequent and mild to moderate in grade and 30 grams daily creatine has been well-tolerated for 9 months. Laboratory abnormalities have been mild. […] Thus long term administration of 30 grams daily of creatine appears to be safe and well-tolerated.

[5] = tested on: cortical thinning in HD; assay: Example 3: morphometric neuroimaging, rate of cortical thinning; settings: high dose creatine
Experimental: High dose creatine slows cortical thinning. Morphometric neuroimaging was performed in all subjects. Longitudinal data from up to three years prior to initiating creatine was available on 6 or the 10 subjects. The rate of thinning of cortical regions in HD was modeled based on the longitudinal data and a change in rate was determined for each region of the group while on creatine. […] Creatine reduced the rate of thinning in almost every region, and the rate of change was statistically significant for several regions and amounted to about a 30% slowing. There was no effect on the rate of caudate volume loss (p=0.67), rate of putamen volume loss, or on total brain volume. The lack of an effect on striatal volumes likely reflects the fact that in these individuals, caudate and putamen volumes were already reduced by more than half and the lack of change in whole brain by the fact that small proportion of the brain is represented by the detected change.

[6] = tested on: subjects with early Parkinson's disease (PD); assay: Example 2: safety and tolerability in the early Parkinson's disease trial; settings: human, in vivo
Experimental: Study Design and Randomization. This example was a single arm futility study designed to assess creatine and minocycline. A placebo arm for calibration was included in the example. Eligible subjects were randomly assigned in a 1:1:1 fashion to receive 1) 10 g/day of creatine monohydrate and placebo minocycline, 2) placebo creatine monohydrate and 200 mg/day of minocycline, or 3) placebo creatine monohydrate and placebo minocycline. The primary futility analysis was at 12 months of follow-up, but each subject was followed for 18 months for additional safety information. Subjects and investigators were kept blinded to treatment group.
Dosages. Creatine was administered as 5 g sachets mixed with 8 ounces of liquid taken twice a day and minocycline was administered as 100 mg capsules taken twice a day. Both were taken with meals.
Outcome measures. The primary, prespecified outcome measure was the change in the total Unified PD Rating Scale (UPDRS) score from baseline to either the time at which there was sufficient disability to warrant symptomatic therapy for PD or 12 months, whichever came first. Disability was assessed by the sight investigator, based on impairment in ambulation, activities in daily living, and occupational status. The mean change in total UPDRS for each treatment group was compared to a prespecified futility threshold of a 30% reduction in the historically derived change in the total UPDRS, which was based on a placebo arm of a previous clinical trial. Tolerability was defined as the proportion of subjects taking study drug for the full 12 months. All […] adverse events (SAEs) were reviewed by the study medical monitor and an independent medical monitor. Both the site investigator and medical monitors assessed the potential relationship between SAEs and study drug.
Study Procedures. At the screening visit, the purpose and potential risks were explained to potential subjects and each subject gave written consent. […] Blood was obtained for serum chemistry and complete blood count. Participants were reevaluated at 1, 3, 6, 9, and 12 months (±6 days) after the baseline visit using the battery of clinical scales and blood was drawn again at 6 and 12 months.

[7] = De-escalation Baseline, 15 g/day, N 5
[8] = De-escalation Baseline, 30 g/day, N 5
[9] = Week 24 (Visit 4), 30 g/day, N 10

## CN(CC(=O)O)C(=N)N [Creatine, creatine monohydrate]
[1]; 10 subjects, 5-gram increments, two weeks per dose level, no withdrawals
  Dose tolerated by all subjects during dose escalation: up to 40 grams/day
[1]; dose escalation 10-40 grams per day
  Changes in UHDRS subscores: not significant
[1]; in vivo
  Adverse events at high doses: increased numbers of adverse events
  Average creatinine level: 1.28 ± 0.16 mg/dL
  BUN levels: did not increase
  Serious adverse events, laboratory abnormalities, EKG: no serious adverse events, no significant laboratory abnormalities and no EKG alterations
  Tolerability at selected dose: excellent tolerability
[2]; pooled data
  Improvement of median survival over placebo: two-to-three
[2]; pooled data of two trials, Cox model, 95% confidence interval 0.11 to 1.04, p=0.059
  Adjusted hazard ratio, creatine group relative to placebo group: 0.34
[2]; pooled data, placebo 27 months
  Median survival: 87 months
[2]; p=0.062, 95% confidence interval 0.11 to 1.06
  Hazard ratio, homogeneity of effect between trials: 0.34
[3]
  Doses associated with maximum suppression of serum 8OH2′dG, levels similar to normal controls: greater than 25 grams daily
[3]; greater than seen with 8 grams per day
  Serum 8OH2′dG: dose dependent suppression
[4]; [7]
  Independence Score: 75.0 (8.7)
  Stroop Color Naming: 52.8 (22.9)
  Stroop Interference: 23.8 (13.1)
  Stroop Word Reading: 56.0 (24.3)
  Symbol Digit Modalities Test: 29.0 (10.6)
  Total Chorea Score: 5.5 (1.7)
  Total Functional Assessment: 10.6 (9.8)
  Total Functional Capacity: 8.8 (1.8)
  Verbal Fluency Test: 15.8 (16.0)
[4]; [8]
  Independence Score: 82.5 (14.4)
  Stroop Color Naming: 57.8 (24.2)
  Stroop Interference: 40.0 (19.6)
  Stroop Word Reading: 90.0 (24.2)
  Symbol Digit Modalities Test: 34.0 (20.5)
  Total Chorea Score: 7.8 (4.3)
  Total Functional Assessment: 15.8 (10.2)
  Total Functional Capacity: 9.8 (3.4)
  Verbal Fluency Test: 28.3 (15.8)
[4]; [9]
  Independence Score: 82.5 (8.9)
  Stroop Color Naming: 51.7 (21.37)
  Stroop Interference: 31.3 (15.23)
  Stroop Word Reading: 62.7 (24.11)
  Symbol Digit Modalities Test: 30.56 (12.63)
  Total Chorea Score: 7.0 (4.1)
  Total Functional Assessment: 19.6 (4.1)
  Total Functional Capacity: 8.7 (2.2)
  Verbal Fluency Test: 26.6 (17.67)
[4]; human, in vivo
  Serious adverse effects: no serious adverse effects
  Tolerability: well-tolerated
[4]; long-term follow-up, up to 9 months
  Clinical changes (UHDRS subscores): no significant clinical changes
[5]; caudate p=0.67
  Effect on rate of caudate volume loss, rate of putamen volume loss, total brain volume: no effect
[5]; several cortical regions statistically significant, longitudinal data on 6 of 10 subjects
  Slowing of the rate of cortical thinning: ~30%
[6]
  Patients with dose reductions: 8

From US20070292403A1, “Methods of treating a neurological disorder with creatine monohydrate” (priority 2006, published 2007)
